Assay results: PubChem BioAssay (NCI)
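Tested at 5 concentrations; 48 h exposure; 96-well plates; endpoints linearly interpolated, else capped at highest concentration. Here, GI50 denotes the concentration required for 50% inhibition of growth. At the TGI there is no net growth.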

Columns and labels:
Experiment in all cases: growth of human tumour cells (NCI), 48 h
[1] = test system: CAKI-1 renal
[2] = test system: MCF7 breast
[3] = test system: HL-60(TB) leukemia
[4] = test system: A498 renal
[5] = test system: SNB-75 CNS
[6] = test system: ACHN renal
[7] = test system: DU-145 prostate
[8] = test system: HOP-62 NSCLC
[9] = test system: RPMI-8226 leukemia
[10] = test system: SN12C renal
[11] = test system: OVCAR-8 ovarian
[12] = test system: SF-268 CNS
[13] = test system: NCI/ADR-RES ovarian
[14] = test system: MALME-3M melanoma
[15] = test system: OVCAR-5 ovarian
[16] = test system: NCI-H460 lung
[17] = test system: TK-10 renal
[18] = test system: K-562 leukemia
[19] = test system: UACC-62 melanoma
[20] = test system: NCI-H226 lung
[21] = test system: HOP-92 NSCLC
[22] = test system: SR leukemia
[23] = test system: A549 NSCLC
[24] = test system: UACC-257 melanoma
[25] = test system: M14 melanoma
[26] = test system: MDA-MB-231 breast
[27] = test system: SK-MEL-5 melanoma
[28] = test system: SF-295 CNS
[29] = test system: HS 578T breast
[30] = test system: KM12 colon

`CN(C(=O)c1ccc(C(C)(C)C)cc1)c1sc2c(c1C#N)CCC(=O)C2` showed a GI50 [1] of 3.8 µM, a TGI [1] of 17.6 µM and a GI50 [2] of 11.8 µM. For the same compound, the TGI [2] was 32 µM, the GI50 [3] was 8.84 µM and the TGI [3] was 30.3 µM. For the same compound, the GI50 [4] was 15.4 µM, the TGI [4] was 29.4 µM and the GI50 [5] was 6.94 µM. It also gave a TGI [5] of 24.4 µM, a GI50 [6] of 3.2 µM and a TGI [6] of 10.5 µM. For the same compound, the GI50 [7] was 16.7 µM, the TGI [7] was 33.4 µM and the GI50 [8] was 15.2 µM. The TGI [8] was 32.1 µM, the GI50 [9] was 2.93 µM and the GI50 [10] was 14 µM. The TGI [10] was 27.2 µM, the GI50 [11] was 9.16 µM and the TGI [11] was 39.6 µM. It also gave a GI50 [12] of 4.79 µM, a TGI [12] of 24.3 µM and a GI50 [13] of 2.68 µM. It also gave a TGI [13] of 7.44 µM, a GI50 [14] of 12.6 µM and a TGI [14] of 26.2 µM. It also gave a GI50 [15] of 14 µM, a TGI [15] of 27.6 µM and a GI50 [16] of 13.1 µM. The TGI [16] was 27.5 µM, the GI50 [17] was 10.4 µM and the TGI [17] was 23 µM. The GI50 [18] was 3.17 µM, the TGI [18] was 10.7 µM and the GI50 [19] was 2.34 µM. For the same compound, the TGI [19] was 6.4 µM, the GI50 [20] was 14.1 µM and the TGI [20] was 38.1 µM. For the same compound, the GI50 [21] was 3.51 µM, the TGI [21] was 15.7 µM and the GI50 [22] was 2.28 µM. For the same compound, the TGI [22] was 7.1 µM, the GI50 [23] was 16.8 µM and the TGI [23] was 35.3 µM. For the same compound, the GI50 [24] was 18 µM, the TGI [24] was 33.7 µM and the GI50 [25] was 3.57 µM. The TGI [25] was 12.8 µM, the GI50 [26] was 2.84 µM and the TGI [26] was 8.49 µM. The GI50 [27] was 2.07 µM, the TGI [27] was 4.63 µM and the GI50 [28] was 3.45 µM. The TGI [28] was 14 µM, the GI50 [29] was 3.89 µM and the TGI [29] was 28.1 µM. It also gave a GI50 [30] of 3.97 µM.
